Among the data in patent publication US11986532B2 (Arvinas Operations, Inc., priority 2021, dated 2024) are DC50 and Dmax values, retold here.

Molecules are shown by their SMILES.

This test addresses T1, BCL6 (Homo sapiens, UniProt P41182).
T1 construct: endogenous in cells; host or cells: T47D breast cancer epithelial cells
The experiment in a line: Immunofluorescence protocol for high content imaging of BCL6 (degradation) in T47D cells, 3 days compound treatment. Conditions: T47D cells, 3 days compound treatment; for DC50: read-out: Mean DC50 (nM)* category; for Dmax: read-out: Mean Dmax (%)** category. In kind it is cell-based. The procedure, abridged:
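High content immunofluorescence imaging (10×, 4 fields/well) of BCL6 using rabbit primary antibody, Alexa-488 secondary, cell mask and Hoechst nuclear stain after PFA fixation. Before staining, T47D cells (7K/well) were exposed for 3 days at 37° C to 3-fold serial dilutions of compound, top final concentration 0.1 or 1 μM.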

As a reminder, the DC50 is the concentration giving 50% degradation. In general, Dmax refers to the largest share of the target that was removed. For the compound `CNC(=O)COc1cc2cc(Nc3nc(N4CCC(F)(CN5CCC6(CC5)CCN(c5cccc7c5CN(C5CCC(=O)NC5=O)C7=O)CC6)CC4)ncc3Cl)ccc2n(C(C)C)c1=O` (centres unmarked) [Compound 82, 2-{[6-({5-chloro-2-[4-({9-[2-(2,6-dioxopiperidin-3-yl)-1-oxo-2,3-dihydro-1H-isoindol-4-yl]-3,9-diazaspiro[5.5]undecan-3-yl}methyl)-4-fluoropiperidin-1-yl]pyrimidin-4-yl}amino)-2-oxo-1-(propan-2-yl)-1,2-dihydroquinolin-3-yl]oxy}-N-methylacetamide], the DC50 was less than 10 nM and the Dmax was no less than 70%.

With `CNC(=O)COc1cc2cc(Nc3nc(N4CCC(CN5CCC6(CC5)CN(c5cc(OC)c7c(c5)C(=O)N(C5CCC(=O)NC5=O)C7=O)C6)CC4)ncc3Cl)ccc2n(C(C)C)c1=O` (centres unmarked) [Compound 83, 2-{[6-({5-chloro-2-[4-({2-[2-(2,6-dioxopiperidin-3-yl)-7-methoxy-1,3-dioxo-2,3-dihydro-1H-isoindol-5-yl]-2,7-diazaspiro [3.5]nonan-7-yl}methyl)piperidin-1-yl]pyrimidin-4-yl}amino)-2-oxo-1-(propan-2-yl)-1,2-dihydroquinolin-3-yl]oxy}-N-methylacetamide], the DC50 is less than 10 nM and the Dmax was in the range of 50 to 70%.

As for `CNC(=O)COc1cc2cc(Nc3nc(N4CCC(CN5CC6(CCN(c7cc8c(cc7F)C(=O)N(C7CCC(=O)NC7=O)C8)CC6)C5)CC4)ncc3Cl)ccc2n(C(C)C)c1=O` (centres unmarked) [Compound 84], the DC50 is less than 10 nM and the Dmax was no less than 70%.

On to `CNC(=O)COc1cc2cc(Nc3nc(N4CCC(CN5CC6(CCN(c7cc8c(cc7OC)C(=O)N(C7CCC(=O)NC7=O)C8)CC6)C5)CC4)ncc3Cl)ccc2n(C(C)C)c1=O` (centres unmarked) [Compound 85, 2-{[6-({5-chloro-2-[4-({7-[2-(2,6-dioxopiperidin-3-yl)-6-methoxy-1-oxo-2,3-dihydro-1H-isoindol-5-yl]-2,7-diazaspiro[3.5]nonan-2-yl}methyl)piperidin-1-yl]pyrimidin-4-yl}amino)-2-oxo-1-(propan-2-yl)-1,2-dihydroquinolin-3-yl]oxy}-N-methylacetamide], for which the DC50 is less than 10 nM and the greatest degradation seen (Dmax) was 50 to 70%.

With `CNC(=O)COc1cc2cc(Nc3nc(N4CCC(CN5CC6(CCN(c7cc(F)c8c(c7)CN(C7CCC(=O)NC7=O)C8=O)CC6)C5)CC4)ncc3Cl)ccc2n(C(C)C)c1=O` (centres unmarked) [Compound 86, 2-{[6-({5-chloro-2-[4-({7-[2-(2,6-dioxopiperidin-3-yl)-7-fluoro-1-oxo-2,3-dihydro-1H-isoindol-5-yl]-2,7-diazaspiro[3.5]nonan-2-yl}methyl)piperidin-1-yl]pyrimidin-4-yl}amino)-2-oxo-1-(propan-2-yl)-1,2-dihydroquinolin-3-yl]oxy}-N-methylacetamide], the DC50 is less than 10 nM and the maximal degradation (Dmax) was in the range of 50 to 70%.

With `CNC(=O)COc1cc2cc(Nc3nc(N4CCC(CN5CC6(CCN(c7ccc8c(c7F)CN(C7CCC(=O)NC7=O)C8=O)CC6)C5)CC4)ncc3Cl)ccc2n(C(C)C)c1=O` (centres unmarked) [Compound 87, 2-{[6-({5-chloro-2-[4-({7-[2-(2,6-dioxopiperidin-3-yl)-4-fluoro-1-oxo-2,3-dihydro-1H-isoindol-5-yl]-2,7-diazaspiro[3.5]nonan-2-yl}methyl)piperidin-1-yl]pyrimidin-4-yl}amino)-2-oxo-1-(propan-2-yl)-1,2-dihydroquinolin-3-yl]oxy}-N-methylacetamide], the DC50 was less than 10 nM and the Dmax was 50 to 70%.

In the case of `CNC(=O)COc1cc2cc(Nc3nc(N4CCC(CN5CC6(CCN(c7ccc8c(c7OC)CN(C7CCC(=O)NC7=O)C8=O)CC6)C5)CC4)ncc3Cl)ccc2n(C(C)C)c1=O` (centres unmarked) [Compound 88, 2-{[6-({5-chloro-2-[4-({7-[2-(2,6-dioxopiperidin-3-yl)-4-methoxy-1-oxo-2,3-dihydro-1H-isoindol-5-yl]-2,7-diazaspiro[3.5]nonan-2-yl}methyl)piperidin-1-yl]pyrimidin-4-yl}amino)-2-oxo-1-(propan-2-yl)-1,2-dihydroquinolin-3-yl]oxy}-N-methylacetamide], the DC50 was less than 10 nM and the Dmax is less than 50%.

As for `CNC(=O)COc1cc2cc(Nc3nc(N4CCN(C(C)(C)C5CCN(c6ccc7c(c6F)CN(C6CCC(=O)NC6=O)C7=O)CC5)CC4)ncc3Cl)ccc2n(C(C)C)c1=O` (centres unmarked) [Compound 89, 2-{[6-({5-chloro-2-[4-(2-{1-[2-(2,6-dioxopiperidin-3-yl)-4-fluoro-1-oxo-2,3-dihydro-1H-isoindol-5-yl]piperidin-4-yl}propan-2-yl)piperazin-1-yl]pyrimidin-4-yl}amino)-2-oxo-1-(propan-2-yl)-1,2-dihydroquinolin-3-yl]oxy}-N-methylacetamide], the DC50 is less than 10 nM and the maximal degradation (Dmax) lay within 50 to 70%.

Regarding `CNC(=O)COc1cc2cc(Nc3nc(N4CCC(CN5CCC6(CN(c7ccc8c(c7)CN(C7CCC(=O)NC7=O)C8=O)C6)C(F)(F)C5)CC4)ncc3Cl)ccc2n(C(C)C)c1=O` (centres unmarked) [Compound 90, 2-{[6-({5-chloro-2-[4-({2-[2-(2,6-dioxopiperidin-3-yl)-1-oxo-2,3-dihydro-1H-isoindol-5-yl]-5,5-difluoro-2,7-diazaspiro[3.5]nonan-7-yl}methyl)piperidin-1-yl]pyrimidin-4-yl}amino)-2-oxo-1-(propan-2-yl)-1,2-dihydroquinolin-3-yl]oxy}-N-methylacetamide], the half-maximal degradation concentration (DC50) is less than 10 nM and the Dmax is 50 to 70%.

On to `CNC(=O)COc1cc2cc(Nc3nc(N4CCC(CN5CCC6(CN(c7cccc8c7C(=O)N(C7CCC(=O)NC7=O)C8=O)C6)C(F)(F)C5)CC4)ncc3Cl)ccc2n(C(C)C)c1=O` (centres unmarked) [Compound 91, 2-{[6-({5-chloro-2-[4-({2-[2-(2,6-dioxopiperidin-3-yl)-1,3-dioxo-2,3-dihydro-1H-isoindol-4-yl]-5,5-difluoro-2,7-diazaspiro[3.5]nonan-7-yl}methyl)piperidin-1-yl]pyrimidin-4-yl}amino)-2-oxo-1-(propan-2-yl)-1,2-dihydroquinolin-3-yl]oxy}-N-methylacetamide], for which the DC50 was less than 10 nM and the Dmax lay within 50 to 70%.

In the case of `CNC(=O)COc1cc2cc(Nc3nc(N4CCC(O[C@H]5C[C@H](N6CCC(c7cc(F)c8c(c7)CN(C7CCC(=O)NC7=O)C8=O)CC6)C5)CC4)ncc3Cl)ccc2n(C(C)C)c1=O` (some centres unmarked) [Compound 92, 2-({6-[(5-chloro-2-{4-[(1r,3r)-3-{4-[2-(2,6-dioxopiperidin-3-yl)-7-fluoro-1-oxo-2,3-dihydro-1H-isoindol-5-yl]piperidin-1-yl}cyclobutoxy]piperidin-1-yl}pyrimidin-4-yl)amino]-2-oxo-1-(propan-2-yl)-1,2-dihydroquinolin-3-yl}oxy)-N-methylacetamide], the DC50 was less than 10 nM and the greatest degradation seen (Dmax) was no less than 70%.

On to `CNC(=O)COc1cc2cc(Nc3nc(N4CCC(F)(CN5CCC6(CC5)CCN(c5c(F)ccc7c5C(=O)N(C5CCC(=O)NC5=O)C7)CC6)CC4)ncc3Cl)ccc2n(C(C)C)c1=O` (centres unmarked) [Compound 93, 2-{[6-({5-chloro-2-[4-({9-[2-(2,6-dioxopiperidin-3-yl)-5-fluoro-3-oxo-2,3-dihydro-1H-isoindol-4-yl]-3,9-diazaspiro [5.5]undecan-3-yl}methyl)-4-fluoropiperidin-1-yl]pyrimidin-4-yl}amino)-2-oxo-1-(propan-2-yl)-1,2-dihydroquinolin-3-yl]oxy}-N-methylacetamide], for which the DC50 is no less than 100 nM and the Dmax is no less than 70%.

`CNC(=O)COc1cc2cc(Nc3nc(N4CCC5(CCN(CC6(F)CCN(c7cccc8c7CN(C7CCC(=O)NC7=O)C8=O)CC6)CC5)CC4)ncc3Cl)ccc2n(C(C)C)c1=O` (centres unmarked) [Compound 95, 2-{[6-({5-chloro-2-[9-({1-[2-(2,6-dioxopiperidin-3-yl)-1-oxo-2,3-dihydro-1H-isoindol-4-yl]-4-fluoropiperidin-4-yl}methyl)-3,9-diazaspiro [5.5]undecan-3-yl]pyrimidin-4-yl}amino)-2-oxo-1-(propan-2-yl)-1,2-dihydroquinolin-3-yl]oxy}-N-methylacetamide]: the DC50 was less than 10 nM and the greatest degradation seen (Dmax) lay in the range of 50 to 70%.

As for `CNC(=O)COc1cc2cc(Nc3nc(N4CCC5(CCN(CC6(F)CCN(c7c(F)ccc8c7CN(C7CCC(=O)NC7=O)C8=O)CC6)CC5)CC4)ncc3Cl)ccc2n(C(C)C)c1=O` (centres unmarked) [Compound 96, 2-{[6-({5-chloro-2-[9-({1-[2-(2,6-dioxopiperidin-3-yl)-5-fluoro-1-oxo-2,3-dihydro-1H-isoindol-4-yl]-4-fluoropiperidin-4-yl}methyl)-3,9-diazaspiro[5.5]undecan-3-yl]pyrimidin-4-yl}amino)-2-oxo-1-(propan-2-yl)-1,2-dihydroquinolin-3-yl]oxy}-N-methylacetamide], the DC50 is less than 10 nM and the Dmax was 50 to 70%.

For `CNC(=O)COc1cc2cc(Nc3nc(N4CCC(F)(CN5CC(N6CCC(c7ccc8c(c7)C(=O)N(C7CCC(=O)NC7=O)C8=O)CC6)C5)CC4)ncc3Cl)ccc2n(C(C)C)c1=O` (centres unmarked) [Compound 97, 2-({6-[(5-chloro-2-{4-[(3-{4-[2-(2,6-dioxopiperidin-3-yl)-1,3-dioxo-2,3-dihydro-1H-isoindol-5-yl]piperidin-1-yl}azetidin-1-yl)methyl]-4-fluoropiperidin-1-yl}pyrimidin-4-yl)amino]-2-oxo-1-(propan-2-yl)-1,2-dihydroquinolin-3-yl}oxy)-N-methylacetamide], the DC50 was less than 10 nM and the Dmax lay in the range of 50 to 70%.

As for `CNC(=O)COc1cc2cc(Nc3nc(N4CCC(OC5CCC6(CCN(c7ccc8c(c7)CN(C7CCC(=O)NC7=O)C8=O)C6)C5)CC4)ncc3Cl)ccc2n(C(C)C)c1=O` (centres unmarked) [Compound 98, 2-{[6-({5-chloro-2-[4-({2-[2-(2,6-dioxopiperidin-3-yl)-1-oxo-2,3-dihydro-1H-isoindol-5-yl]-2-azaspiro[4.4]nonan-7-yl}oxy)piperidin-1-yl]pyrimidin-4-yl}amino)-2-oxo-1-(propan-2-yl)-1,2-dihydroquinolin-3-yl]oxy}-N-methylacetamide], the DC50 was less than 10 nM and the Dmax was less than 50%.
